In ChEMBL document CHEMBL3877266, “Repurposing N,N'-bis-(arylamidino)-1,4-piperazinedicarboxamidines: An unexpected class of potent inhibitors of cholinesterases” (Eur J Med Chem, 2017):

target: T1, Acetylcholinesterase (Electrophorus electricus, UniProt O42275); assay: Non-competitive inhibition of Electrophorus electricus acetylcholinesterase in presence of varying acetylthiocholine iodide substrate level preincubated for 20 mins followed by substrate addition measured every 1 min for 30 mins
T1 sequence (O42275 whole entry): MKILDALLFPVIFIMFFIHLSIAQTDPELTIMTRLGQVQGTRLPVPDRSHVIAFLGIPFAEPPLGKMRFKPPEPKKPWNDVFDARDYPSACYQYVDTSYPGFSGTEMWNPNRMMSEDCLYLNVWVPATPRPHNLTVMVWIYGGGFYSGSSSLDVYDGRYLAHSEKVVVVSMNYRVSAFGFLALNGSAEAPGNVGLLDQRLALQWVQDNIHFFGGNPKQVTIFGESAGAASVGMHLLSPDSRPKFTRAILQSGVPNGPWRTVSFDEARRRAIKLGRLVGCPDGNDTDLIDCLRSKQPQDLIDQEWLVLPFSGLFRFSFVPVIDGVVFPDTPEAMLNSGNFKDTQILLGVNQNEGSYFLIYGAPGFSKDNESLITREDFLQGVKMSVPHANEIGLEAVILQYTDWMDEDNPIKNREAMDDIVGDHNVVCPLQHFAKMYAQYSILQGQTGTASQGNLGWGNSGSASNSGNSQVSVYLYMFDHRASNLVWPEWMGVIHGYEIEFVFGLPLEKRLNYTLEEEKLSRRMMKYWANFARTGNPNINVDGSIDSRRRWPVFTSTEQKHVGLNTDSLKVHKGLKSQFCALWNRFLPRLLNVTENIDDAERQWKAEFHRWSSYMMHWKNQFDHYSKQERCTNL

SMILES | Ki
N=C(NC(=N)N1CCN(C(=N)NC(=N)Nc2cccc(I)c2)CC1)Nc1cccc(I)c1 | 19.9 µM
N=C(NC(=N)N1CCN(C(=N)NC(=N)Nc2ccc(F)cc2)CC1)Nc1ccc(F)cc1 | 16.2 µM
COc1ccc(NC(=N)NC(=N)N2CCN(C(=N)NC(=N)Nc3ccc(OC)cc3)CC2)cc1 | 88.9 µM
N=C(NC(=N)N1CCN(C(=N)NC(=N)Nc2cccc(Cl)c2)CC1)Nc1cccc(Cl)c1 | > 30 µM
N=C(NC(=N)N1CCN(C(=N)NC(=N)Nc2ccccc2I)CC1)Nc1ccccc1I | > 100 µM
N=C(NC(=N)N1CCN(C(=N)NC(=N)Nc2ccccc2)CC1)Nc1ccccc1 | 69.2 µM
N=C(NC(=N)N1CCN(C(=N)NC(=N)Nc2ccc(Cl)cc2Cl)CC1)Nc1ccc(Cl)cc1Cl | 75.3 µM
N=C(NC(=N)N1CCN(C(=N)NC(=N)Nc2ccc(OC(F)(F)F)cc2)CC1)Nc1ccc(OC(F)(F)F)cc1 | 62.2 µM
N=C(NC(=N)N1CCN(C(=N)NC(=N)Nc2ccccc2Br)CC1)Nc1ccccc1Br | 40.5 µM
N=C(NC(=N)N1CCN(C(=N)NC(=N)Nc2ccc(Cl)cc2)CC1)Nc1ccc(Cl)cc1 [PICLOXYDINE] | 28.3 µM
COc1ccccc1NC(=N)NC(=N)N1CCN(C(=N)NC(=N)Nc2ccccc2OC)CC1 | 13.7 µM
Cc1ccc(NC(=N)NC(=N)N2CCN(C(=N)NC(=N)Nc3ccc(C)cc3)CC2)cc1 | > 100 µM
CC(C)(C)c1ccc(NC(=N)NC(=N)N2CCN(C(=N)NC(=N)Nc3ccc(C(C)(C)C)cc3)CC2)cc1 | 21.8 µM
COc1cc(NC(=N)NC(=N)N2CCN(C(=N)NC(=N)Nc3cc(OC)c(OC)c(OC)c3)CC2)cc(OC)c1OC | 41.2 µM
N=C(NC(=N)N1CCN(C(=N)NC(=N)Nc2ccc(I)cc2)CC1)Nc1ccc(I)cc1 | 49.1 µM
N=C(NC(=N)N1CCN(C(=N)NC(=N)Nc2ccccc2F)CC1)Nc1ccccc1F | 58.6 µM
N=C(NC(=N)N1CCN(C(=N)NC(=N)Nc2ccc([N+](=O)[O-])cc2)CC1)Nc1ccc([N+](=O)[O-])cc1 | 2.96 µM
COc1cccc(NC(=N)NC(=N)N2CCN(C(=N)NC(=N)Nc3cccc(OC)c3)CC2)c1 | 45.2 µM
N=C(NC(=N)N1CCN(C(=N)NC(=N)Nc2ccccc2Cl)CC1)Nc1ccccc1Cl | 66.7 µM
N=C(NC(=N)N1CCN(C(=N)NC(=N)Nc2cccc(F)c2)CC1)Nc1cccc(F)c1 | 104 µM
N=C(NC(=N)N1CCN(C(=N)NC(=N)Nc2cccc(Br)c2)CC1)Nc1cccc(Br)c1 | 25.4 µM
N=C(NC(=N)N1CCN(C(=N)NC(=N)Nc2ccc(Br)cc2)CC1)Nc1ccc(Br)cc1 | 35.5 µM

target: T2, Cholinesterase (Equus caballus, UniProt P81908); assay: Competitive inhibition of equine serum butyrylcholinesterase in presence of varying butyrylthiocholine iodide substrate level preincubated for 20 mins followed by substrate addition measured every 1 min for 30 mins
T2 sequence (P81908 whole entry): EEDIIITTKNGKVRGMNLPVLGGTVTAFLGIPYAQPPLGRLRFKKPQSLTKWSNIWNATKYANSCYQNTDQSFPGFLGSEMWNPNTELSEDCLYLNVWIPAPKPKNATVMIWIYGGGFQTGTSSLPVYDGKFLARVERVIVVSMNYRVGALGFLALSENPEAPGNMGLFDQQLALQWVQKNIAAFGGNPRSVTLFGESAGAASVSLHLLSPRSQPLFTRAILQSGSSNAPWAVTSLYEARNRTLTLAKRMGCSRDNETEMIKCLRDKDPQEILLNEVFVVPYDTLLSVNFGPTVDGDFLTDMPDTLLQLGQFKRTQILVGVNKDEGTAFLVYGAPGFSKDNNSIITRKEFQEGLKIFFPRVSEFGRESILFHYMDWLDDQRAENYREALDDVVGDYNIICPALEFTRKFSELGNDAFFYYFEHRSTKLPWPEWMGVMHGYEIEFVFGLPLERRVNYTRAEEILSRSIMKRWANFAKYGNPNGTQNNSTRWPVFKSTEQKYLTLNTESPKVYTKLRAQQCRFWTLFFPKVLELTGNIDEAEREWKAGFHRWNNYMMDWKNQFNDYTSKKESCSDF

SMILES | Ki
N=C(NC(=N)N1CCN(C(=N)NC(=N)Nc2cccc(I)c2)CC1)Nc1cccc(I)c1 | 0.21 µM
N=C(NC(=N)N1CCN(C(=N)NC(=N)Nc2ccc(F)cc2)CC1)Nc1ccc(F)cc1 | 1.18 µM
COc1ccc(NC(=N)NC(=N)N2CCN(C(=N)NC(=N)Nc3ccc(OC)cc3)CC2)cc1 | 1.78 µM
N=C(NC(=N)N1CCN(C(=N)NC(=N)Nc2cccc(Cl)c2)CC1)Nc1cccc(Cl)c1 | 0.74 µM
N=C(NC(=N)N1CCN(C(=N)NC(=N)Nc2ccccc2I)CC1)Nc1ccccc1I | 1.96 µM
N=C(NC(=N)N1CCN(C(=N)NC(=N)Nc2ccccc2)CC1)Nc1ccccc1 | 0.95 µM
N=C(NC(=N)N1CCN(C(=N)NC(=N)Nc2ccc(Cl)cc2Cl)CC1)Nc1ccc(Cl)cc1Cl | 0.41 µM
N=C(NC(=N)N1CCN(C(=N)NC(=N)Nc2ccc(OC(F)(F)F)cc2)CC1)Nc1ccc(OC(F)(F)F)cc1 | 3.34 µM
N=C(NC(=N)N1CCN(C(=N)NC(=N)Nc2ccccc2Br)CC1)Nc1ccccc1Br | 1.25 µM
N=C(NC(=N)N1CCN(C(=N)NC(=N)Nc2ccc(Cl)cc2)CC1)Nc1ccc(Cl)cc1 [PICLOXYDINE] | 0.62 µM
COc1ccccc1NC(=N)NC(=N)N1CCN(C(=N)NC(=N)Nc2ccccc2OC)CC1 | 5.2 µM
Cc1ccc(NC(=N)NC(=N)N2CCN(C(=N)NC(=N)Nc3ccc(C)cc3)CC2)cc1 | 0.45 µM
CC(C)(C)c1ccc(NC(=N)NC(=N)N2CCN(C(=N)NC(=N)Nc3ccc(C(C)(C)C)cc3)CC2)cc1 | 0.12 µM
COc1cc(NC(=N)NC(=N)N2CCN(C(=N)NC(=N)Nc3cc(OC)c(OC)c(OC)c3)CC2)cc(OC)c1OC | 9.03 µM
N=C(NC(=N)N1CCN(C(=N)NC(=N)Nc2ccc(I)cc2)CC1)Nc1ccc(I)cc1 | 0.31 µM
N=C(NC(=N)N1CCN(C(=N)NC(=N)Nc2ccccc2F)CC1)Nc1ccccc1F | 6.82 µM
N=C(NC(=N)N1CCN(C(=N)NC(=N)Nc2ccc([N+](=O)[O-])cc2)CC1)Nc1ccc([N+](=O)[O-])cc1 | 10.8 µM
COc1cccc(NC(=N)NC(=N)N2CCN(C(=N)NC(=N)Nc3cccc(OC)c3)CC2)c1 | 3.02 µM
N=C(NC(=N)N1CCN(C(=N)NC(=N)Nc2ccccc2Cl)CC1)Nc1ccccc1Cl | 1.85 µM
N=C(NC(=N)N1CCN(C(=N)NC(=N)Nc2cccc(F)c2)CC1)Nc1cccc(F)c1 | 1.7 µM
N=C(NC(=N)N1CCN(C(=N)NC(=N)Nc2cccc(Br)c2)CC1)Nc1cccc(Br)c1 | 0.23 µM
N=C(NC(=N)N1CCN(C(=N)NC(=N)Nc2ccc(Br)cc2)CC1)Nc1ccc(Br)cc1 | 0.61 µM

target: T2, Cholinesterase; assay: Non-competitive inhibition of equine serum butyrylcholinesterase in presence of varying butyrylthiocholine iodide substrate level preincubated for 20 mins followed by substrate addition measured every 1 min for 30 mins

SMILES | Ki
N=C(NC(=N)N1CCN(C(=N)NC(=N)Nc2cccc(I)c2)CC1)Nc1cccc(I)c1 | 3.04 µM
N=C(NC(=N)N1CCN(C(=N)NC(=N)Nc2ccc(F)cc2)CC1)Nc1ccc(F)cc1 | 15.2 µM
COc1ccc(NC(=N)NC(=N)N2CCN(C(=N)NC(=N)Nc3ccc(OC)cc3)CC2)cc1 | 35.1 µM
N=C(NC(=N)N1CCN(C(=N)NC(=N)Nc2cccc(Cl)c2)CC1)Nc1cccc(Cl)c1 | 12.2 µM
N=C(NC(=N)N1CCN(C(=N)NC(=N)Nc2ccccc2I)CC1)Nc1ccccc1I | 11.2 µM
N=C(NC(=N)N1CCN(C(=N)NC(=N)Nc2ccccc2)CC1)Nc1ccccc1 | > 40 µM
N=C(NC(=N)N1CCN(C(=N)NC(=N)Nc2ccc(Cl)cc2Cl)CC1)Nc1ccc(Cl)cc1Cl | 7.51 µM
N=C(NC(=N)N1CCN(C(=N)NC(=N)Nc2ccc(OC(F)(F)F)cc2)CC1)Nc1ccc(OC(F)(F)F)cc1 | > 20 µM
N=C(NC(=N)N1CCN(C(=N)NC(=N)Nc2ccccc2Br)CC1)Nc1ccccc1Br | 12.3 µM
N=C(NC(=N)N1CCN(C(=N)NC(=N)Nc2ccc(Cl)cc2)CC1)Nc1ccc(Cl)cc1 [PICLOXYDINE] | 9.37 µM
COc1ccccc1NC(=N)NC(=N)N1CCN(C(=N)NC(=N)Nc2ccccc2OC)CC1 | 34 µM
Cc1ccc(NC(=N)NC(=N)N2CCN(C(=N)NC(=N)Nc3ccc(C)cc3)CC2)cc1 | 11.8 µM
CC(C)(C)c1ccc(NC(=N)NC(=N)N2CCN(C(=N)NC(=N)Nc3ccc(C(C)(C)C)cc3)CC2)cc1 | 4.41 µM
N=C(NC(=N)N1CCN(C(=N)NC(=N)Nc2ccc(I)cc2)CC1)Nc1ccc(I)cc1 | 2.74 µM
N=C(NC(=N)N1CCN(C(=N)NC(=N)Nc2ccccc2F)CC1)Nc1ccccc1F | 25.5 µM
N=C(NC(=N)N1CCN(C(=N)NC(=N)Nc2ccc([N+](=O)[O-])cc2)CC1)Nc1ccc([N+](=O)[O-])cc1 | 22.9 µM
COc1cccc(NC(=N)NC(=N)N2CCN(C(=N)NC(=N)Nc3cccc(OC)c3)CC2)c1 | 54.8 µM
N=C(NC(=N)N1CCN(C(=N)NC(=N)Nc2ccccc2Cl)CC1)Nc1ccccc1Cl | 12.7 µM
N=C(NC(=N)N1CCN(C(=N)NC(=N)Nc2cccc(F)c2)CC1)Nc1cccc(F)c1 | 32.9 µM
N=C(NC(=N)N1CCN(C(=N)NC(=N)Nc2cccc(Br)c2)CC1)Nc1cccc(Br)c1 | 10.3 µM
N=C(NC(=N)N1CCN(C(=N)NC(=N)Nc2ccc(Br)cc2)CC1)Nc1ccc(Br)cc1 | 3.84 µM

target: T1, Acetylcholinesterase; assay: Competitive inhibition of Electrophorus electricus acetylcholinesterase in presence of varying acetylthiocholine iodide substrate level preincubated for 20 mins followed by substrate addition measured every 1 min for 30 mins

SMILES | Ki
N=C(NC(=N)N1CCN(C(=N)NC(=N)Nc2cccc(I)c2)CC1)Nc1cccc(I)c1 | 2.79 µM
N=C(NC(=N)N1CCN(C(=N)NC(=N)Nc2ccc(F)cc2)CC1)Nc1ccc(F)cc1 | 7.77 µM
COc1ccc(NC(=N)NC(=N)N2CCN(C(=N)NC(=N)Nc3ccc(OC)cc3)CC2)cc1 | 25.6 µM
N=C(NC(=N)N1CCN(C(=N)NC(=N)Nc2cccc(Cl)c2)CC1)Nc1cccc(Cl)c1 | 4.45 µM
N=C(NC(=N)N1CCN(C(=N)NC(=N)Nc2ccccc2I)CC1)Nc1ccccc1I | 1.56 µM
N=C(NC(=N)N1CCN(C(=N)NC(=N)Nc2ccccc2)CC1)Nc1ccccc1 | 13.5 µM
N=C(NC(=N)N1CCN(C(=N)NC(=N)Nc2ccc(Cl)cc2Cl)CC1)Nc1ccc(Cl)cc1Cl | 9.34 µM
N=C(NC(=N)N1CCN(C(=N)NC(=N)Nc2ccc(OC(F)(F)F)cc2)CC1)Nc1ccc(OC(F)(F)F)cc1 | 19.8 µM
N=C(NC(=N)N1CCN(C(=N)NC(=N)Nc2ccccc2Br)CC1)Nc1ccccc1Br | 4.19 µM
N=C(NC(=N)N1CCN(C(=N)NC(=N)Nc2ccc(Cl)cc2)CC1)Nc1ccc(Cl)cc1 [PICLOXYDINE] | 22 µM
COc1ccccc1NC(=N)NC(=N)N1CCN(C(=N)NC(=N)Nc2ccccc2OC)CC1 | 4.34 µM
Cc1ccc(NC(=N)NC(=N)N2CCN(C(=N)NC(=N)Nc3ccc(C)cc3)CC2)cc1 | 9.25 µM
CC(C)(C)c1ccc(NC(=N)NC(=N)N2CCN(C(=N)NC(=N)Nc3ccc(C(C)(C)C)cc3)CC2)cc1 | 1.41 µM
COc1cc(NC(=N)NC(=N)N2CCN(C(=N)NC(=N)Nc3cc(OC)c(OC)c(OC)c3)CC2)cc(OC)c1OC | 7.74 µM
N=C(NC(=N)N1CCN(C(=N)NC(=N)Nc2ccc(I)cc2)CC1)Nc1ccc(I)cc1 | 5.08 µM
N=C(NC(=N)N1CCN(C(=N)NC(=N)Nc2ccccc2F)CC1)Nc1ccccc1F | 14.9 µM
N=C(NC(=N)N1CCN(C(=N)NC(=N)Nc2ccc([N+](=O)[O-])cc2)CC1)Nc1ccc([N+](=O)[O-])cc1 | 0.52 µM
COc1cccc(NC(=N)NC(=N)N2CCN(C(=N)NC(=N)Nc3cccc(OC)c3)CC2)c1 | 10.4 µM
N=C(NC(=N)N1CCN(C(=N)NC(=N)Nc2ccccc2Cl)CC1)Nc1ccccc1Cl | 6.11 µM
N=C(NC(=N)N1CCN(C(=N)NC(=N)Nc2cccc(F)c2)CC1)Nc1cccc(F)c1 | 14.9 µM
N=C(NC(=N)N1CCN(C(=N)NC(=N)Nc2cccc(Br)c2)CC1)Nc1cccc(Br)c1 | 6.17 µM
N=C(NC(=N)N1CCN(C(=N)NC(=N)Nc2ccc(Br)cc2)CC1)Nc1ccc(Br)cc1 | 3.43 µM
